Earlier results in patent US20130225581A1, “NITROGEN-CONTAINING AROMATIC HETEROCYCLIC DERIVATIVE” (KYOWA HAKKO KIRIN CO., LTD, priority 2010, published 2013).

Test system: human gastric cancer tumor models

| Compound | antitumor activities |
| --- | --- |
| COc1cc2nccc(Oc3ccc(NC(=O)NC4CC4)c(Cl)c3)c2cc1C(N)=O [4-[3-chloro-4-(cyclopropylaminocarbonyl)aminophenoxy]-7-methoxy-6-quinolinecarboxamide] | show antitumor activities |
| COc1cc2c(Oc3ccc4[nH]c(C)cc4c3F)ncnc2cc1OCCCN1CCCC1 [AZD2171] | show antitumor activities |
